The text below walks through data of US6896895B2, “Carotenoid esters, carotenoid-enriched feeds, and methods of pigmenting foods and foodstuffs” (DSM IP Assets B.V., priority 2000, dated 2005).

Each structure is given as a SMILES string. Marks after values point to notes of the source that are not given here.

The nature of series [1]: Carotenoid ester content in plasma, back skin and abdominal fat of broilers (HPLC). It counts as in vivo, broiler chickens (Ross 308, Ross 508). As to conditions: average over doses, Table 4. As to the method:
(§1) Pigmentation efficacy was assessed in egg yolk, in the back skin of the broiler carcass, and in broiler shanks by reflectance colorimetry accompanied by visual scoring (Roche Colour Fan). The deposition of the ethyl-β-apo-8′-carotenoate (control) and the other carotenoid esters was determined in egg yolk and in the broiler back skin. In addition, the carotenoid levels in plasma and abdominal fat were measured.
(§2) The trials were carried out using chickens of the type Ross 308 (trials MC-24/98 and MC-02/99) and Ross 508 (trials MC-11/99, MC-16/99, MC-24/99, and MC-03/00) (Couvir de la Bohardière, F-49290 Saint Laurent de la Plaine). One-day old broiler chickens, separated by sex, were divided by weight into experimental groups of ten animals each and reared in floor pens littered with wood shavings. The chickens were fed a low carotenoid basal grower diet until day 22 (trials MC-24/98, MC-02/99, and MC-11/99) or until day 15 (trials MC-16/99, MC-24/99, and MC-03/00). The low carotenoid basal grower diet contained less than 2 mg total xanthophylls per kg of feed, and its composition is described in Table 2. For the subsequent experimental period of three weeks, the birds received the basal diet supplemented with an appropriate pigment. The feed was given in the form of crumbled pellets during the first week and as pellets thereafter. The animals had unrestricted access to feed and water. A given treatment involved one group of male and one group of female chickens. Each group of chickens was weighed at day 22 (trials MC-24/98, MC-02/99, and MC-11/99) or day 15 (trials MC-16/99, MC-24/99, and MC-03/00) and on day 43. On day 42, five chickens per group were selected at random, labelled, and blood samples were taken from the jugular vein. At the end of the experiment (day 44) the animals were slaughtered in a commercial slaughterhouse (Freyburger, Dannemarie, France). The following day, the color of the skin (hind back of carcasses) and the shanks of the labelled chicken were measured by reflectance colorimetry (Minolta CR 200 apparatus, CIE-Lab system). Samples of the dorsal skin and abdominal fat were obtained, pooled for each experimental group, and the carotenoid concentration was determined. The concentration of carotenoids in feed, plasma, skin, and abdominal fat was determined by standard procedures as described after Tables 1 and 2.
The content of the various carotenoid esters in feed was determined according to the method of Schierle, et al. (J. Schierle , N. Faccin, V. Riegert, Analytical Methods for Vitamins and Carotenoids in Feed, Revised supplement: Determination of Stabilized Apocarotenoic Ester and Canthaxanthin in Premixes and Feeds, Roche publication no. 50771 (1995), publicly available from. F. Hoffmann-La Roche Ltd., CH-4070 Basel). This method was modified in that the mobile phase of the normal-phase HPLC contained 0.5% instead of 7% acetone in n-hexane, improving the separation of the E/Z-isomers of the carotenoid esters. Peaks were related to all-E- and Z-isomers of the various carotenoid esters by chromatography of heat-isomerized solutions of the respective reference substances in n-hexane. The HPLC system was calibrated with the all-E-isomer of ethyl β-apo-8′-carotenoate. The response factor of the various derivatives was deduced from that of ethyl β-apo-8′-carotenoate taking into account the respective molecular weight. The content of the Z-isomer fractions was calculated based on the response of the all-E-isomer and using a correction factor of 1.4 to account for the lower specific absorbance of the Z-isomers.
(§3) The HPLC-system for in-feed analysis was also used to quantify the carotenoid esters in egg yolk, broiler tissues, and broiler plasma, but the extraction procedure was different for the various matrices.
For plasma extraction, 1.0 g of the well-mixed plasma sample was introduced into a 10 ml test tube with 1.0 ml of demineralized water and 4.0 ml of ethanol, and the contents mixed on a Vortex shaker. […]

Series [2] relates to skin and shanks of broilers. As to the kind of experiment: Reflectance colorimetry and visual classification of skin and shanks of broilers. In kind it is in vivo, broiler chickens (Ross 308, Ross 508). As to conditions: dry carcasses, average over doses, Table 6. Also noted: key to Shanks Visual Classification / Skin Visual Classification: −; (+); +; ++ = good color; o = orange. As to the method: as §1, §2
The color of broiler skin and shanks was measured using a tristimulus Minolta CR-300 Chromameter with diffuse D65-illumination and a 0° viewing angle. The color of the skin was read at three different points on the back of the dry broiler carcasses and average values of the triple measurements were recorded. The color of shanks was measured using single measurements at the ball between the toes.
(§4) The color data were expressed as CIE L*a*b*-values including h*(hue) and C* (chroma). The values given in the tables per treatment and trial represent averages of color measurements of four egg yolk pools, ten broiler back skins, or ten broiler shanks (5 males and 5 females).

Series [3] can be described thus: Carotenoid ester content and deposition rate in egg yolk of laying hens (HPLC). In kind it is in vivo, laying hens (ISA Brown). As to conditions: egg yolk; for Deposition Rate % of Controls: Table 10. Here is the method: as §1
Each year in February the pigmentation trials are started with a new flock of layers.
(§5) Preceding the trials the hens were fed a low carotenoid basal diet (produced at the CRNA) without carotenoid supplementation for at least 28 days. During the trials, the control group received the low carotenoid basal diet containing less than 2 mg total xanthophylls per kg of feed. The other animals were fed this diet supplemented with the appropriate pigments for three weeks. The diet was given to the animals ad libitum in mash form. The hens had free access to tap water.
Peaks were related to all-E- and Z-isomers of the various carotenoid esters by chromatography of heat-isomerized solutions of the respective reference substances in n-hexane. The HPLC system was calibrated with the all-E-isomer of ethyl β-apo-8′-carotenoate. The response factor of the various derivatives was deduced from that of ethyl β-apo-8′-carotenoate taking into account the respective molecular weight. The content of the Z-isomer fractions was calculated based on the response of the all-E-isomer and using a correction factor of 1.4 to account for the lower specific absorbance of the Z-isomers.
as §3
For the extraction of egg yolk, 10 g of pooled and homogenised yolk were mixed with 10 ml of demineralized water using a dispersion instrument (Polytron). 1.0 g of diluted egg yolk was introduced into a 10 ml test tube with 1.0 ml of demineralized water and 2.0 ml of ethanol, and the contents were mixed on a Vortex shaker. After addition of 4.0 ml of n-hexane, the mixture was further treated as described for plasma.

In series [4] the test system is egg yolk. As to the kind of experiment: Egg yolk colour: reflectance colorimetry and Roche Yolk Colour Fan. It counts as in vivo, laying hens (ISA Brown). As to conditions: egg yolk, laying hens. As to the method: as §1
The trials were carried out following the standard experimental design used for egg yolk pigmentation trials at the Roche Research Center for Animal Nutrition (CRNA, F-68305 Village-Neuf, France). Each year in February the pigmentation trials are started with a new flock of layers. At the beginning of the trials the age of the laying hens (192 birds, type ‘ISA Brown’) were as follows:
as §5, with “water. Beside the unsupplemented control treatment, treatments were carried out involving the provision of supplemented feed, the results of these treatments being presented in Tables 7-9.” for “water.”
Egg yolk color was assessed as described by Steinberg, et al. (Arch. Geflügelk 64 (4), 180-187 (2000)). The yolks were manually separated from the whites of the eggs. The isolated yolks of three to six eggs were combined, weighed, and stirred with a glass rod until the color appeared homogeneous. The color hue was visually scored using the Roche Yolk Colour Fan (RYCF, version 1993). An aliquot of the pooled egg yolks was transferred into a glass cuvette yielding an approximately 2 cm thick layer. The color was then measured by means of a Dr. Lange Xeno Color LS 100 spectro-colorimeter with diffuse D65-illumination and a 8° viewing angle.
as §4

[5] abbreviates: trials H-18, 22/99, 1, 2, 4, 5, 8 mg/kg feed, Table 8.
[6] abbreviates: trials H-18, 22/99, 1, 2, 4, 5, 8 mg/kg feed, Table 10.
Setting [7] is: trial H-12/99, 2, 4, 8 mg/kg feed, Table 8.
Where [8] appears, read: trial H-12/99, 2, 4, 8 mg/kg feed, Table 10.
The mark [9] stands for this setting: trial H-18/99, 5.0 mg/kg feed, Table 8.
Where [10] appears, read: trial H-18/99, 5.0 mg/kg feed, Table 10.
[11] abbreviates: control, n = 16, 1.0-8.0 mg/kg feed.

As for `CCC(C)OC(=O)C(C)=CC=CC(C)=CC=CC=C(C)C=CC=C(C)C=CC1=C(C)CCCC1(C)C` (stereo not drawn) [(5), sec. butyl beta-apo-8′-carotenoate], in series [1], the “Analytical Content as Equivalent of Ethyl β-apo-8′-carotenoate in % of control Fat” value was determined as 53%, the “Analytical Content as Equivalent of Ethyl β-apo-8′-carotenoate in % of control Plasma” value (shortened to “Analytical Content … in % of control Plasma”) turned out to be 94% and the “Analytical Content as Equivalent of Ethyl β-apo-8′-carotenoate in % of control Skin” value worked out at 74%. In addition, in series [2], the “Shanks Chroma C*ab % of Controls” value is listed as 100%, the “Shanks Color Hue h*ab % of Controls” value amounted to 101%, the “Shanks Visual Classification” value was “+” and the “Skin Chroma C*ab % of Controls” value is on record as 100%. In series [2], the “Skin Color Hue h*ab % of Controls” value amounted to 101% and the “Skin Visual Classification” value is given as “+”. Moreover, in series [3] (setting [5]), the “Deposition Rate Target Values % of Controls” value is listed as 97% and the “Ethyl β-apo-8′-carotenoate Equivalents % of Controls” value is given as 90%. For the same molecule, in series [3] (trials H-18, 22/99, 1, 2, 4, 5, 8 mg/kg feed, comparison within same trials), the “Deposition Rate % of Controls” value is given as 84^1) %. In series [4] (setting [5]), the “Color Fan Value % of Controls” value is 88%. In series [4] (setting [6]), the “Chroma C*ab % of Controls” value came to 103% and the “Color Hue h*ab % of Controls” value is 102%. Further, in series [4] (trials H-18, 22/99, 1, 2, 4, 5, 8 mg/kg feed, comparison within same trials, Table 10), the “Color Fan Value % of Controls” value is 93^1) %.
As for `CCCOC(=O)C(C)=CC=CC(C)=CC=CC=C(C)C=CC=C(C)C=CC1=C(C)CCCC1(C)C` [(2), n-propyl beta-apo-8′-carotenoate], in series [1], the “Analytical Content as Equivalent of Ethyl β-apo-8′-carotenoate in % of control Fat” value came out at 39%, the “Analytical Content … in % of control Plasma” value was 68% and the “Analytical Content as Equivalent of Ethyl β-apo-8′-carotenoate in % of control Skin” value is 45%. Moreover, in series [2], the “Shanks Chroma C*ab % of Controls” value is reported as 108%, the “Shanks Color Hue h*ab % of Controls” value amounted to 99%, the “Shanks Visual Classification” value is given as “(+)” and the “Skin Chroma C*ab % of Controls” value was 93%. In series [2], the “Skin Color Hue h*ab % of Controls” value was determined as 97% and the “Skin Visual Classification” value is “(+)”. Further, in series [3] (setting [7]), the “Deposition Rate Target Values % of Controls” value was 77% and the “Ethyl β-apo-8′-carotenoate Equivalents % of Controls” value amounted to 73%. Moreover, the “Deposition Rate % of Controls” value in series [3] (trial H-12/99, 2, 4, 8 mg/kg feed) came to 77%. Besides, the “Color Fan Value % of Controls” value in series [4] (setting [7]) is 110%. In addition, in series [4] (setting [8]), the “Chroma C*ab % of Controls” value is recorded as 95%, the “Color Fan Value % of Controls” value was found to be 110% and the “Color Hue h*ab % of Controls” value was 101%.
Consider `CC(C=CC=C(C)C=CC1=C(C)CCCC1(C)C)=CC=CC=C(C)C=CC=C(C)C(=O)OCC(C)C` [(4), isobutyl beta-apo-8′-carotenoate], for which, in series [1], the “Analytical Content … in % of control Plasma” value was found to be 58%. Moreover, in series [2], the “Shanks Chroma C*ab % of Controls” value stood at 72%, the “Shanks Color Hue h*ab % of Controls” value is 105%, the “Shanks Visual Classification” value is listed as “(+)” and the “Skin Chroma C*ab % of Controls” value is given as 84%. Further, in series [2], the “Skin Color Hue h*ab % of Controls” value is given as 98% and the “Skin Visual Classification” value is “(+)”. Also, in series [3] (setting [9]), the “Deposition Rate Target Values % of Controls” value is on record as 83% and the “Ethyl β-apo-8′-carotenoate Equivalents % of Controls” value was 74%. Besides, the “Deposition Rate % of Controls” value in series [3] (trial H-18/99, 5.0 mg/kg feed) was 83%. Further, the “Color Fan Value % of Controls” value in series [4] (setting [9]) is listed as 116%. Further, in series [4] (setting [10]), the “Chroma C*ab % of Controls” value worked out at 104%, the “Color Fan Value % of Controls” value was 116% and the “Color Hue h*ab % of Controls” value is 101%.
For the molecule `CCOC(=O)/C(C)=C/C=C/C(C)=C/C=C/C=C(C)/C=C/C=C(C)/C=C/C1=C(C)CCCC1(C)C` [Ethyl β-apo-8′-carotenoate, ethyl beta-apo-8′-carotenoate, reference compound], in series [3] (setting [11]), the “Deposition Rate Target Values % of Controls” value came to 100% and the “Ethyl β-apo-8′-carotenoate Equivalents % of Controls” value stood at 100%. In addition, the “Color Fan Value % of Controls” value in series [4] (setting [11]) is on record as 100%.
